Assay results as given in patent US20050042747A1, “Hivgp120-induced bob/gpr15 activation” (priority 2001, published 2005).
“Also recorded” adds a separate entry of the source.

How the values were obtained:
[1] = tested on: gp120-induced calcium signaling in HT-29 cells; experiment: Inhibition of gp120-induced calcium signaling in HT-29 cells; type: cell-based, human; settings: pretreatment
Description: (§1) Calcium studies were done on HT-29 cells and Ghost (3) cells loaded with Fluo 4. The cells were placed in Locke's buffer containing 5 μg/ml Fluo 4 AM ester (Molecular Probes) for 20 to 30 minutes, then in Locke's buffer for an additional 30 minutes before testing. Various concentrations of gp120IIIB (X4 trophic), gp120CM235 (R5 trophic), gp120mN (X4 trophic), gp12093TH975 (nonsyncytium-inducing primary isolate from an asymptomatic subject, trophism undetermined but likely R5), and gp120SF2 (X4R5 trophic), ranging from 10 nM to less than 1 pM, were added in Locke's buffer.^6 The gp120 proteins were obtained from the AIDS Research Reagent Referral Program. Some HT-29 cells were given one of the following pretreatments: 50 μg/ml anti-Bob37 overnight, 1 μg/ml pertussis toxin overnight, or 4.6 μg/ml U73122 for one hour. With the HT-29 cells only, similar tests were also performed with SDF-1, MIP-1α, MIP-1β, and RANTES rather than gp120. The cells were visualized every 4 seconds in a confocal microscope, using 488 nm argon laser excitation and detection filters appropriate for fluorescein-like dyes.
Blocking antibody experiments were done with HT-29 cells (monitoring calcium flux, microtubule loss, or transepithelial resistance), with Ghost (3) Bob cells (monitoring calcium flux) and peripheral blood mononuclear cells (monitoring calcium flux and HIV infection). Specifics of these protocols and the specific results are given herein. […] Antibody concentrations of 40 to 50 micrograms/ml overnight were needed for maximal effect.
(§2) For the first two or three days after plating, gp120 induces an immediate (within 4 seconds) calcium flux in undifferentiated HT-29 cells. The cells had previously been loaded with Fluo-4 AM ester (Molecular Probes, Eugene Oreg.) 5 micrograms/ml in the presence of Pleuronic F-127 0.02% in Locke's buffer for 30 minutes, then incubated at room temperature for an additional 30 minutes. Gp120IIIB was added while the cells were on an inverted confocal microscope using a 488 nm argon laser, with detection filters suitable for fluorescein-like dyes. […]

[2] = Interaction of synthetic Bob peptides with GalCer monolayer (surface pressure); type: binding, human; settings: initial surface pressure 10 mN/m; at equilibrium; mean of three experiments ±SD
Description: Artificial membranes composed entirely of galactosyl ceramide with an alpha hydroxylated fatty acid were made. The surface pressure was measured with a microtensimeter (Kibron Inc., Finland) designed for the study of protein-lipid interactions. The peptides used for immunization were added to the subphase, and the surface pressure was continuously measured until equilibrium was reached. The increase in pressure was expressed in mN/m.
A monolayer of GalCer was prepared at the air-water interface at an initial surface pressure of 10 mN/m. The maximal surface surface pressure increase (Δπmax) reached at the equilibrium is indicated. The values are the mean of three separate experiments (±SD).
(§3) Galactosylceramide with an α-hydroxylated fatty acid (referred to as GalCer throughout this study) was either prepared from bovine brain (Sigma) or purified from HT-29-D4 membrane rafts (Fantini et al., 2000a). The surface pressure was measured with a microtensiometer (Kibron Inc., Finland) specially designed for studying protein-lipid interactions (Fantini et al., 2000a). The experiments were carried at 25° C. out in a laboratory equipped with a filtered air supply. A solution of GalCer was prepared extemporaneously in hexane:chloroform:methanol, 11:5:4 (v:v:v) at a concentration of 1 mg/ml. The lipid was carefully spread onto the meniscus of a pure water subphase (800 μl). The proteic ligand (GPR15/Bob peptides or HIV-1 gp120) was injected into the subphase with a 10 μl Hamilton syringe. The surface pressure was continuously measured as a function of time until reaching equilibrium corresponding to the maximal surface presure increase (Δπmax) expressed in mN/m.

HT-29 cells = experiment: Calcium signaling in HT-29 cells (Fluo 4, confocal microscope); type: cell-based, human
Description: HT-29 cells (from ATCC) were grown in DMEM-F12 with 10% bovine calf serum, and were used 24-48 hours after plating. The Ghost (3) cells were obtained from the AIDS Research and Reference Reagent Program, and were grown DMEM with 10% bovine calf serum supplemented with 500 μg/ml G418, 100 μg/ml hygromycin, and 1 μg/ml puromycin.^27 These cells were used 24 to 96 hours after plating.
as §1, §2

[3] = GalCer-gp120 interactions at the air-water interface (surface pressure); type: binding; settings: gp120 5 nM in aqueous subphase
Description: A monomolecular film of GalCer was prepared at the air-water interface and gp120 purified from either IIIB (full squares), SEN (open circles) or 89.6 (full circles) isolates was added in the aqueous subphase at a concentration of 5 nM. The kinetics of the surface pressure increase induced by the viral glycoproteins are shown.
as §3
In a recent study, it was shown that the interaction between GalCer and gp120 purified from HIV-1(IIIB) was very efficient, whereas gp120s from 89.6 and SEN isolates interacted very weakly (Hammache et al., 1998). The kinetics of this interaction are an important physicochemical parameter allowing the direct comparison of GalCer recognition by various gp120s. In the experiment shown in FIG. 11, gp120 purified from IIIB, SEN, or 89.6 was injected underneath a monomolecular film of GalCer at the air-water interface. The GalCer film mimics the topology of a GalCer raft as it is organized in the external leaflet of the plasma membrane. For this reason, the Langmuir film balance technique is one of the most sensitive and reliable for studying protein-glycolipid interactions (Maggio et al., 1994). […] The surface increase indicates a condensing effect of the gp120 on the lipidic film due to its interaction with GalCer molecules (Hammache et al., 1998). […] At this time however, the level of interaction indicated by the absolute increase of the surface pressure was identical to the one of gp120(IIIB). […] The GalCer-binding capacity of gp120(SEN) was reevaluated and shown to occur much more slowly, but not less efficiently, than of gp120(IIIB).

HT-29-D4 cells = experiment: Transepithelial resistance (TEER) of differentiated HT-29-D4 cells; type: cell-based, human; settings: electrophysiological medium
CCR5 = biological target: T1, CCR5 (Homo sapiens, UniProt P51681); experiment: gp120-induced calcium flux, Ghost (3) cells transfected with CCR5; type: cell-based; parameters: key: — = no calcium flux seen at any dilution tested; settings: Ghost (3) CCR5 cells
T1 construct: host or cells: Ghost (3) cells (human osteosarcoma, CD4+)
T1 sequence (P51681 whole entry): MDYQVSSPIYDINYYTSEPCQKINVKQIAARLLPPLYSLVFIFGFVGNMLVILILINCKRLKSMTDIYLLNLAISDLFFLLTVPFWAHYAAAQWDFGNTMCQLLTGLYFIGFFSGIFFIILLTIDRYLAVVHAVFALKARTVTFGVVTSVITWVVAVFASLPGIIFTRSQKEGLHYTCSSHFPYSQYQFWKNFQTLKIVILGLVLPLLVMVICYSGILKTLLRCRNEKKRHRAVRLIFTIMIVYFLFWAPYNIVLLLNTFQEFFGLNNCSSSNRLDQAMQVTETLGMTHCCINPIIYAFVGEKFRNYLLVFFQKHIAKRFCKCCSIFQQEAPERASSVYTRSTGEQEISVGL
Description: as §1
(§4) Human osteosarcoma cell lines were transfected to express CD4, one or another of the HIV coreceptors, and a Green Fluorescent Protein reporter for active HIV infection, for the purpose of testing which of the known coreceptors was used to induce HIV infection by a given HIV strain (Morner A. J Virol 73:2343-9, 1999 and Deng K Nature 388:296-300, 1997). These cells were obtained from the AIDS Research and Reference Reagent Program, courtesy of Dr. Vineet KewalRamani and Dr. Dan Littman. These cells were grown in DMEM with 10% bovine calf serum supplemented with 0.5 mg/ml G418, 0.1 mg/ml hygromycin, and 1 microgram/ml puromycin, and were used at low passage number (less than 10). We have discovered that these cell lines are also activated by gp120 of certain viral strains, inducing a calcium flux in these cells.
(§5) Within 4 days of plating, coreceptor-transfected Ghost (3) cells (as well as the parent cell line not transfected to express any HIV coreceptors as a control) were put in Locke's medium, then treated with Fluo-4 (5 micrograms/ml for 30 minutes at 37° C.). After an additional 30 minute incubation in Locke's buffer at room temperature, the cells were examined in a confocal microscope while gp120 of various viral strains was added, and the cells were examined at 4 second intervals to look for a gp120-induced calcium flux. The results are given in the following table, expressed as the minimal concentration of gp120 resulting in a significant calcium flux. “−” means that no reproducible calcium flux was observed. “ND” means that the gp120 of that viral strain was not tested with the stated coreceptor. […]

Bob = biological target: T2, Bob (Homo sapiens, UniProt P49685); experiment: gp120-induced calcium flux, Ghost (3) cells transfected with Bob (Fluo-4); type: cell-based; parameters: key to minimal concentration of gp120 resulting in a significant calcium flux: — = no calcium flux seen at any dilution tested
T2 construct: host or cells: Ghost (3) cells (human osteosarcoma, also transfected with CD4 and a GFP reporter)
T2 sequence (P49685 1-360): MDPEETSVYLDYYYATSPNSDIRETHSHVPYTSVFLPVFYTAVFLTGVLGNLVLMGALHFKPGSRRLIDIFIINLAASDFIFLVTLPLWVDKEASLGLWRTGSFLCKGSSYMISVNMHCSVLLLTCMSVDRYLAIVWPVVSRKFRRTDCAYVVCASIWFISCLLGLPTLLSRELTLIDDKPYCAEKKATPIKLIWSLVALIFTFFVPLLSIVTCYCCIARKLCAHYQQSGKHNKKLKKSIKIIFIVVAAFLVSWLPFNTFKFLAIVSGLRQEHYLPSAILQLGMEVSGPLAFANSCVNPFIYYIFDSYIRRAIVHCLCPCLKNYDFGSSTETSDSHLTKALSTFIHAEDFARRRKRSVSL
Description: as §1, §4
Within 4 days of plating, coreceptor-transfected Ghost (3) cells (as well as the parent cell line not transfected to express any HIV coreceptors as a control) were put in Locke's medium, then treated with Fluo-4 (5 micrograms/ml for 30 minutes at 37° C.). After an additional 30 minute incubation in Locke's buffer at room temperature, the cells were examined in a confocal microscope while gp120 of various viral strains was added, and the cells were examined at 4 second intervals to look for a gp120-induced calcium flux. The results are given in the following table, expressed as the minimal concentration of gp120 resulting in a significant calcium flux. “−” means that no reproducible calcium flux was observed. “ND” means that the gp120 of that viral strain was not tested with the stated coreceptor.
These cells were treated with serial dilutions (100 or 250 nM to at least 1 pM, or even less if calcium fluxes were noted) of gp120. Gp120s from each of four HIV-1 strains: IIIB, CM235, SF2, and […] were used. Listed is the greatest dilution which induced a significant, reproducible calcium flux. The parental line is known to express CXCR4 at very low levels. Those results indicated by an asterisk are thought to represent this artifact.

[4] = tested on: Ghost (3) parental cell line; experiment: gp120-induced calcium flux, Ghost (3) parental cell line; type: cell-based, human; parameters: key: — = no calcium flux seen at any dilution tested; settings: Ghost (3) parental line
Description: as §1, §4, §5

CXCR4 = biological target: T3, CXCR4 (Homo sapiens, UniProt P61073); experiment: gp120-induced calcium flux, Ghost (3) cells transfected with CXCR4; type: cell-based; parameters: key: — = no calcium flux seen at any dilution tested; settings: Ghost (3) CXCR4 cells
T3 construct: host or cells: Ghost (3) cells (human osteosarcoma, CD4+)
T3 sequence (P61073 whole entry): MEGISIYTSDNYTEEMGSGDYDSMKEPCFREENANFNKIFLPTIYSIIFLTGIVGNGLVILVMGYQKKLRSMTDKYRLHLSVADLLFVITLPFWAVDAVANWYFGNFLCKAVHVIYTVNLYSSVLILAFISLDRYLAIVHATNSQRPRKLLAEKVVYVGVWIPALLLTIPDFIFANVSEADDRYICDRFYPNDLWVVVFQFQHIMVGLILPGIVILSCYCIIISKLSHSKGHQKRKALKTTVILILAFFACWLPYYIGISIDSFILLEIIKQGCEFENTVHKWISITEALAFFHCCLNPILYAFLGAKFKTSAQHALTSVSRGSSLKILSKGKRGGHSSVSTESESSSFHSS
Description: as §1, §4, §5

[5] = tested on: peripheral blood mononuclear cells; experiment: gp120-induced calcium flux in peripheral blood mononuclear cells; type: cell-based, human; settings: for inhibition of gp120IIIB-induced calcium flux, in words: pretreatment
Description: Normal human peripheral blood mononuclear cells were isolated by Ficoll gradient centrifugation, and loaded with the calcium sensitive dye Fluo-4. HIV gp120IIIB induced strong calcium fluxes in the range of 7 nM to 50 pM, and there was a weaker signal at 5 pM.
Experiments corresponding to those with HT-29 cells were done with peripheral blood mononuclear cells. These were isolated from the blood of a healthy, HIV-uninfected person by a Ficoll-Hypaque techique (Histopaque, Sigma), then loaded with Fluo-4 by a technique nearly identical to that used for HT-29 cells, except that Hank's buffer was used rather than Locke's, and the cells were centrifuged (2,000 g for 10 minutes) just before calcium flux measurements to improve adherence. Gp120-induced calcium fluxes were documented with as little as 5 pM gp120IIIB.

COc1ccc2c(c1)CC[C@@H]1[C@@H]2CC[C@]2(C)[C@@H](NCCCCCCN3C(=O)CCC3=O)CC[C@@H]12 [U73343]
inhibition of gp120-induced calcium signaling, in words [1]: no inhibitory effect and not

DKEASLGLWRTGSFLCK [P2, Bob peptide, first extracellular loop]
Δπ max [2]: 5.40 ± 1.52 mN/m

HAEDFARRRKRSVSL [P1, Bob peptide, internal C-ter domain]
Δπ max [2]: 1.89 ± 0.85 mN/m

KNYDFGSSTETSDSHLTK [P6, Bob peptide, internal C-ter domain]
Δπ max [2]: 2.67 ± 0.40 mN/m

MDPEETSVYLDYYYATS [P3, Bob peptide, extracellular N-ter end]
Δπ max [2]: 2.26 ± 0.12 mN/m

RELTLIDDKPYCAEKKAT [P5, Bob peptide, second extracellular loop]
Δπ max [2]: 6.86 ± 1.37 mN/m

SDF-1: natural ligand of CXCR4 [reference compound]
calcium signaling in HT-29 cells, in words (HT-29 cells): substantial calcium signal; also recorded: induced similar calcium signaling

SGLRQEHYLPSAILQ [P4, Bob peptide, third extracellular loop]
Δπ max [2]: 5.21 ± 1.06 mN/m

gp120(89.6): gp120 purified from primary isolate HIV-1(89.6)
interaction with GalCer film, in words [3]: very little association with GalCer | maximal surface pressure increase relative to IIIB and SEN [3]: less than 50% | TEER response, in words (HT-29-D4 cells): not observed | TEER response, in words (HT-29-D4 cells; listed as gp120 from 89.6): totally inactive

gp120MN: gp120 of HIV strain MN (X4 trophic)
minimal concentration of gp120 resulting in a significant calcium flux (CCR5): — | minimal concentration of gp120 resulting in a significant calcium flux (Bob; Ghost (3) Bob cells, 100 or 250 nM to at least 1 pM): — | Bob activation / calcium signals in Bob-transfected Ghost (3) cells, in words (Bob; listed as MN): do not activate Bob; also recorded: did not cause calcium signals | minimal concentration of gp120 resulting in a significant calcium flux [4]: — | minimal concentration of gp120 resulting in a significant calcium flux (CXCR4): —

heparin
inhibition of gp120IIIB-induced calcium flux ([5]; 15 minute preincubation of gp120IIIB with 40 micrograms/ml at 0-4° C., 200 nM gp120IIIB): 40 fold | inhibition of gp120IIIB-induced calcium flux, in words [5]: Inhibition | inhibition of gp120IIIB-induced calcium flux, in words ([5]; listed as sodium heparin): inhibited the calcium flux
